# Assays:
# CYP3A4/5 = details: in vitro; cited from earlier work
# plasma proteins = details: cited from earlier work
# [1] = system: advanced or metastatic solid tumors; experiment: Anti-tumor activity; type: in vivo, human
# [2] = system: P-gp-overexpressing cell lines; details: cited from earlier work
# [3] = system: patients with advanced solid tumors; experiment: Phase I dose escalation: safety, DLT, MTD; type: in vivo, human; details: for Dyspnea, grade 3: listed as remotely related to study drug
# tubulin in PBMCs = experiment: Microtubule bundle formation; type: in vivo, human; details: for mean percentage of MBF: RP2D
# [4] = Urinary excretion of KOS-1584 and metabolites; type: in vivo, human; details: MTD level, 0-24 h urine
# [5] = system: paclitaxel-resistant xenografts; details: cited from earlier work
# [6] = 0.8 mg/m^2 (n = 1), treatment-related
# [7] = 1.5 mg/m^2 (n = 4), treatment-related
# [8] = 2.5 mg/m^2 (n = 4), treatment-related
# [9] = 3.7 mg/m^2 (n = 3), treatment-related
# [10] = 5 mg/m^2 (n = 4), treatment-related
# [11] = 6.5 mg/m^2 (n = 6), treatment-related
# [12] = 8.5 mg/m^2 (n = 3), treatment-related
# [13] = 11.3 mg/m^2 (n = 4), treatment-related
# [14] = 15 mg/m^2 (n = 4), treatment-related
# [15] = 20 mg/m^2 (n = 5), treatment-related
# [16] = 27 mg/m^2 (n = 4), treatment-related
# [17] = 36 mg/m^2 (n = 16), treatment-related
# [18] = 42 mg/m^2 (n = 6), treatment-related
# [19] = 48 mg/m^2 (n = 2), treatment-related
smiles,measurement,setting,value
"C/C1=C/C[C@@H](/C(C)=C/c2csc(C)n2)OC(=O)C[C@H](O)C(C)(C)C(=O)[C@H](C)[C@@H](O)[C@@H](C)/C=C/C1 [KOS-1584, (E)-9,10-didehydroepothilone D]",inhibition of CYP3A4/5,CYP3A4/5,potent inhibitor
same,bound to plasma proteins,plasma proteins,97%
same,patients with durable SD of ≥3 months,[1]; 66 patients,13 patients
same,patients with objective partial response (PR),"[1]; 66 patients, 0.8-48 mg/m^2",Two
same,disease control rate (CR + PR + SD),[1]; all patients,39%
same,potency relative to paclitaxel,[2],more potent than paclitaxel
same,"Dyspnea, grade 3",[3]; 0.8 mg/m^2 (n = 1),1 no. of patients
same,"Anemia, grade 1/2",[3]; [6],1 no. of patients
same,"Anorexia, grade 1/2",[3]; [6],1 no. of patients
same,"Asthenia/fatigue, grade 3",[3]; [6],1 no. of patients
same,"Constipation, grade 1/2",[3]; [6],1 no. of patients
same,"Diarrhea, grade 1/2",[3]; [6],1 no. of patients
same,"Nausea/vomiting, grade 1/2",[3]; [6],1 no. of patients
same,"Anorexia, grade 1/2",[3]; [7],2 no. of patients
same,"Arthralgia/myalgia, grade 1/2",[3]; [7],1 no. of patients
same,"Back pain, grade 1/2",[3]; [7],2 no. of patients
same,"Diarrhea, grade 1/2",[3]; [7],2 no. of patients
same,"Dyspnea, grade 1/2",[3]; [7],1 no. of patients
same,"Lymphopenia, grade 1/2",[3]; [7],1 no. of patients
same,"Nausea/vomiting, grade 1/2",[3]; [7],1 no. of patients
same,"Peripheral neuropathy, grade 1/2",[3]; [7],2 no. of patients
same,"Pleural effusion, grade 1/2",[3]; [7],1 no. of patients
same,"Abdominal pain, grade 1/2",[3]; [8],2 no. of patients
same,"Anorexia, grade 1/2",[3]; [8],2 no. of patients
same,"Asthenia/fatigue, grade 1/2",[3]; [8],4 no. of patients
same,"Constipation, grade 1/2",[3]; [8],2 no. of patients
same,"Diarrhea, grade 1/2",[3]; [8],2 no. of patients
same,"Dry skin/rash, grade 1/2",[3]; [8],1 no. of patients
same,"Nausea/vomiting, grade 1/2",[3]; [8],2 no. of patients
same,"Peripheral neuropathy, grade 1/2",[3]; [8],1 no. of patients
same,"Abdominal pain, grade 1/2",[3]; [9],1 no. of patients
same,"Anemia, grade 1/2",[3]; [9],1 no. of patients
same,"Arthralgia/myalgia, grade 1/2",[3]; [9],1 no. of patients
same,"Asthenia/fatigue, grade 1/2",[3]; [9],1 no. of patients
same,"Diarrhea, grade 1/2",[3]; [9],2 no. of patients
same,"Dizziness, grade 1/2",[3]; [9],1 no. of patients
same,"Nausea/vomiting, grade 1/2",[3]; [9],1 no. of patients
same,"Peripheral neuropathy, grade 1/2",[3]; [9],1 no. of patients
same,"Anorexia, grade 1/2",[3]; [10],1 no. of patients
same,"Dizziness, grade 1/2",[3]; [10],1 no. of patients
same,"Edema, grade 1/2",[3]; [10],1 no. of patients
same,"Nausea/vomiting, grade 1/2",[3]; [10],1 no. of patients
same,"Dyspnea, grade 3",[3]; 6.5 mg/m^2 (n = 6),1 no. of patients
same,"Anemia, grade 1/2",[3]; [11],1 no. of patients
same,"Asthenia/fatigue, grade 1/2",[3]; [11],2 no. of patients
same,"Diarrhea, grade 1/2",[3]; [11],1 no. of patients
same,"Dizziness, grade 1/2",[3]; [11],2 no. of patients
same,"Nausea/vomiting, grade 1/2",[3]; [11],1 no. of patients
same,"Pleural effusion, grade 1/2",[3]; [11],1 no. of patients
same,"Asthenia/fatigue, grade 1/2",[3]; [12],1 no. of patients
same,"Edema, grade 1/2",[3]; [12],1 no. of patients
same,"Peripheral neuropathy, grade 1/2",[3]; [12],1 no. of patients
same,"Anorexia, grade 1/2",[3]; [13],1 no. of patients
same,"Asthenia/fatigue, grade 1/2",[3]; [13],1 no. of patients
same,"Asthenia/fatigue, grade 3",[3]; [13],1 no. of patients
same,"Constipation, grade 1/2",[3]; [13],1 no. of patients
same,"Headache, grade 1/2",[3]; [13],1 no. of patients
same,"Nausea/vomiting, grade 1/2",[3]; [13],1 no. of patients
same,"Abdominal pain, grade 3",[3]; [14],1 no. of patients
same,"Anemia, grade 1/2",[3]; [14],1 no. of patients
same,"Asthenia/fatigue, grade 3",[3]; [14],1 no. of patients
same,"Diarrhea, grade 1/2",[3]; [14],1 no. of patients
same,"Edema, grade 1/2",[3]; [14],1 no. of patients
same,"Nausea/vomiting, grade 1/2",[3]; [14],2 no. of patients
same,"Peripheral neuropathy, grade 1/2",[3]; [14],1 no. of patients
same,"Alopecia, grade 1/2",[3]; [15],1 no. of patients
same,"Anemia, grade 1/2",[3]; [15],1 no. of patients
same,"Anorexia, grade 1/2",[3]; [15],1 no. of patients
same,"Asthenia/fatigue, grade 1/2",[3]; [15],1 no. of patients
same,"Constipation, grade 1/2",[3]; [15],1 no. of patients
same,"Diarrhea, grade 1/2",[3]; [15],1 no. of patients
same,"Lymphopenia, grade 1/2",[3]; [15],1 no. of patients
same,"Nausea/vomiting, grade 1/2",[3]; [15],2 no. of patients
same,"Peripheral neuropathy, grade 1/2",[3]; [15],2 no. of patients
same,"Dyspnea, grade 3",[3]; 27 mg/m^2 (n = 4),1 no. of patients
same,"Alopecia, grade 1/2",[3]; [16],1 no. of patients
same,"Anemia, grade 1/2",[3]; [16],2 no. of patients
same,"Anorexia, grade 1/2",[3]; [16],1 no. of patients
same,"Asthenia/fatigue, grade 1/2",[3]; [16],4 no. of patients
same,"Back pain, grade 1/2",[3]; [16],1 no. of patients
same,"Chest pain, grade 1/2",[3]; [16],1 no. of patients
same,"Constipation, grade 1/2",[3]; [16],1 no. of patients
same,"Diarrhea, grade 1/2",[3]; [16],1 no. of patients
same,"Dizziness, grade 1/2",[3]; [16],1 no. of patients
same,"Dry skin/rash, grade 1/2",[3]; [16],1 no. of patients
same,"Headache, grade 1/2",[3]; [16],3 no. of patients
same,"Nausea/vomiting, grade 1/2",[3]; [16],1 no. of patients
same,"Peripheral neuropathy, grade 1/2",[3]; [16],4 no. of patients
same,"incidence of diarrhea at RP2D, first figure",[3]; 36 mg/m^2,31%
same,"incidence of diarrhea at RP2D, second figure",[3]; 36 mg/m^2,6%
same,"Alopecia, grade 1/2",[3]; [17],4 no. of patients
same,"Anemia, grade 1/2",[3]; [17],2 no. of patients
same,"Anorexia, grade 1/2",[3]; [17],3 no. of patients
same,"Arthralgia/myalgia, grade 3",[3]; [17],1 no. of patients
same,"Asthenia/fatigue, grade 3",[3]; [17],1 no. of patients
same,"Back pain, grade 1/2",[3]; [17],1 no. of patients
same,"Back pain, grade 3",[3]; [17],1 no. of patients
same,"Chest pain, grade 1/2",[3]; [17],2 no. of patients
same,"Chest pain, grade 3",[3]; [17],1 no. of patients
same,"Constipation, grade 1/2",[3]; [17],1 no. of patients
same,"Diarrhea, grade 1/2",[3]; [17],4 no. of patients
same,"Diarrhea, grade 3",[3]; [17],1 no. of patients
same,"Dry skin/rash, grade 1/2",[3]; [17],1 no. of patients
same,"Edema, grade 1/2",[3]; [17],2 no. of patients
same,"Headache, grade 1/2",[3]; [17],1 no. of patients
same,"Peripheral neuropathy, grade 1/2",[3]; [17],11 no. of patients
same,"Thrombocytopenia, grade 1/2",[3]; [17],1 no. of patients
same,"Abdominal pain, grade 3",[3]; [18],2 no. of patients
same,"Alopecia, grade 1/2",[3]; [18],2 no. of patients
same,"Anemia, grade 3",[3]; [18],1 no. of patients
same,"Anorexia, grade 1/2",[3]; [18],2 no. of patients
same,"Asthenia/fatigue, grade 1/2",[3]; [18],3 no. of patients
same,"Asthenia/fatigue, grade 3",[3]; [18],1 no. of patients
same,"Constipation, grade 3",[3]; [18],1 no. of patients
same,"Diarrhea, grade 1/2",[3]; [18],3 no. of patients
same,"Diarrhea, grade 3",[3]; [18],2 no. of patients
same,"Dizziness, grade 1/2",[3]; [18],2 no. of patients
same,"Lymphopenia, grade 3",[3]; [18],1 no. of patients
same,"Nausea/vomiting, grade 1/2",[3]; [18],3 no. of patients
same,"Neutropenia, grade 3",[3]; [18],1 no. of patients
same,"Peripheral neuropathy, grade 1/2",[3]; [18],4 no. of patients
same,"Peripheral neuropathy, grade 3",[3]; [18],2 no. of patients
same,"Thrombocytopenia, grade 1/2",[3]; [18],1 no. of patients
same,"Anorexia, grade 1/2",[3]; [19],1 no. of patients
same,"Arthralgia/myalgia, grade 3",[3]; [19],1 no. of patients
same,"Asthenia/fatigue, grade 1/2",[3]; [19],1 no. of patients
same,"Back pain, grade 3",[3]; [19],1 no. of patients
same,"Nausea/vomiting, grade 3",[3]; [19],1 no. of patients
same,"Peripheral neuropathy, grade 3",[3]; [19],1 no. of patients
same,frequency of all-grade peripheral neuropathy,[3]; RP2D 36 mg/m^2,69%
same,frequency of grade ≥3 peripheral neuropathy,[3]; RP2D 36 mg/m^2,0%
same,patients who discontinued therapy due to adverse effects,[3]; all cohorts,Five
same,patients with positive FOBT or hematochezia,[3]; all cohorts,Five
same,myelosuppression,[3]; heavily pretreated patients,very low incidence of myelosuppression
same,recommended phase II dose (RP2D),[3]; iv every 3 weeks,36 mg/m^2
same,maximum tolerated dose (MTD),[3]; iv over 3 h every 3 weeks,36 mg/m^2
same,hypersensitivity reactions,[3]; no routine premedication,not associated with any hypersensitivity reactions
same,mean percentage of MBF,tubulin in PBMCs; 1 h after infusion,50%
same,mean percentage of MBF,tubulin in PBMCs; 24 h after infusion,26%
same,E0 of MBF,tubulin in PBMCs; sigmoidal maximum effect model,3.69%
same,EC50 of plasma concentration for MBF,tubulin in PBMCs; sigmoidal maximum effect model,0.0241 µg/mL
same,Emax of MBF,tubulin in PBMCs; sigmoidal maximum effect model,52.7%
same,Urinary excretion of unchanged KOS-1584,[4],< 10 % of drug-related materials
same,anti-tumor activity,[5],anti-tumor activity has been demonstrated
